Assay results from patent US20260085315A1, “POLYNUCLEOTIDE COMPOSITIONS AND METHODS FOR TREATMENT OF CANCER” (APTAH BIO, INC., priority 2023, published 2026).
Several values for one entry are separate records, joined by “and”; a condition that tells them apart may be missing. Equal entries are not always repeated. Entries after “also recorded” stand apart in the source; their conditions may differ.

Key:
Assay type in all cases: in vivo, athymic nude mice
[1] = tested on: Human Glioblastoma Cancer (U-87MG) xenograft; assay: Histopathology of tumor samples with scoring; parameters: key: 1: Few; 2: Moderate; 3: Large; details: individual animals; G3 APT20TTMG, G2 TMZ
Source text: (§1) The fixed tissues were processed for routine paraffin embedding followed by sectioning (3-6 micron). The sections were stained with hematoxylin and eosin. The prepared slides were examined under microscope by the study pathologist to record histopathological findings in tumor samples, related to capsule formation, cell type, connective tissue stroma, apoptosis, necrosis, lipid content, nucleus-to-cytoplasmic (N:C) ratio, nuclei mitotic figures, tumor grade, and level of differentiation. Each histopathological finding and tumor volume were assigned a score ranging from 1 to 4 (Table 7). The sum of these scores for each sample was used to infer the tumor aggressiveness.

[2] = tested on: Human Glioblastoma Cancer (U-87MG) xenograft; assay: Histopathology of tumor samples with scoring; parameters: key: 4: Minimal; 3: Mild; 2: Moderate; 1: Prominent; details: individual animals; G3 APT20TTMG, G2 TMZ
Source text: as §1

[3] = tested on: Human Glioblastoma Cancer (U-87MG) xenograft; assay: Human glioblastoma xenograft tumor growth; details: for tumor reduction in relation to the negative control: APT20TTMG 20 mg/kg i.v. q3d, TMZ 5 mg/kg p.o. daily
Description: Subcutaneous inoculation of the tumorigenic Human Glioblastoma Cancer Cell line (U-87MG) results in the formation of solid tumor in athymic nude mice. Under pathogen free conditions, the tumor retains its own characteristics and grows using the growth factors supplied by the host animal. The ability of administered ASMO1 to inhibit the growth of tumor can be a valuable tool to evaluate its efficacy as an anti-tumor agent. Measurement of tumor size at defined intervals of time generates data that can be used to calculate various end point parameters derived from tumor and understand the potency of the test compounds.
Human glioblastoma cancer cells (U-87MG) were cultured and expanded in EMEM (Eagle's Minimum Essential Medium) supplemented with 10% Fetal Bovine Serum (FBS) at 37° C. and 5% CO2. The cells growing at log phase were harvested by trypsinization and centrifuged for 3 minutes at 800 rpm to form a pellet. The pellet was further washed with PBS. Cell suspension stock was prepared to obtain the required cell count. Before cell inoculation, cell viability was determined using trypan blue. 25 μL of cell suspension was stained with 25 μL of trypan blue and viable cells were counted using Neubauer's chamber. Cell number was adjusted by adding serum free media to achieve desired concentration, i.e., 10×10^7/mL.
Cells were diluted such that the concentration of the cells was 10 million cells/100 μL of serum free medium. Overnight thawed Matrigel and cells with medium were mixed 1:1 and a total volume of 200 μL was injected subcutaneously to the donor animals (n=5) at flank region.
Donor animals were monitored for solid tumor growth for at least 3-4 weeks. Tumor size was measured using digital caliper (MITUTOYO, Japan, CP-15Mx) and volume was calculated by using the formula: (L*W2)/2. Once the tumor reached required size ˜500 mm^3, the donor animals were humanely sacrificed, the tumor was harvested and fragmented into ˜30 mg size and implanted subcutaneously to experimental animals (n=50) using the device. All the animals was monitored alternate day for tumor growth/size.
Once the tumor size reached ˜100 mm^3, animals were selected and randomized by stratification method using tumor size into three groups (G1-G3). Treatment for G1-G3 was initiated at this stage. Each group was comprised of 8 animals.
• G1 was served as vehicle control group and treated with normal saline at the dose of 5 mL/kg, daily, intravenously for 3 weeks. • G2 was served as Reference Item treated group and treated with TMZ at the dose of 5 mg/kg, p.o., daily for 3 weeks. • G3 was treated with APT20TTMG at the dose of 20 mg/kg, intravenously, every third day (q3d) for 3 weeks.
Body weight and tumor size were measured weekly twice using digital caliper. At termination, blood was collected through retro-orbital route. Serum/plasma was separated and stored at deep freezer (−20° C.). Post blood collection, animals were humanely sacrificed by CO2 asphyxiation as per latest guidelines issued by CPCSEA. All the vital organ (brain, kidney, liver, lungs, heart) and tumor were dissected out. Vital organs were fixed in 10% NBF and stored. Tumor tissue was dissected out, weighed and portion of tumor tissue was fixed in 10% NBF and another portion is snap frozen and stored at deep freezer (−80° C.).
As shown in FIG. 34A-C, tumor fragments from the U-87MG cell line were implanted in the animals and once the tumor size reached ˜100 mm^3 animals were randomized into 3 experimental groups (G1, G2, and G3). G1: Vehicle, (G2) Reference Item Temozolomide, and (G3) APT20TTMG for a total of 22 days. (A) The tumor volume of the animals was measured twice/a week. (B) Animals were weighed throughout the experiment and the change in weight gain compared to pre-treatment weight was plotted. (C) After the euthanasia of the animals, the tumors were removed and weighed.

[4] = tested on: Human Glioblastoma Cancer (U-87MG) xenograft; assay: Histopathology of tumor samples with scoring; parameters: key: 1: Minimal Fibrosis; 2: Mild Fibrosis; 3: Moderate Fibrosis; 4: Prominent; details: individual animals; G3 APT20TTMG, G2 TMZ
Source text: as §1

[5] = tested on: Human Glioblastoma Cancer (U-87MG) xenograft; assay: Histopathology of tumor samples with scoring; parameters: key to Score: Grade: 1: I; 2: II; 3: III; 4: IV; key to Score: Connective tissue stroma: 1: Minimal Fibrosis; 2: Mild Fibrosis; 3: Moderate Fibrosis; 4: Prominent; key to Score: N:C ratio: 3: High; 2: Low to High; 1: Low; key to Score: Apoptosis / Score: Lipid content: 4: Minimal; 3: Mild; 2: Moderate; 1: Prominent; details: individual animals; G3 APT20TTMG, G2 TMZ
Source text: as §1

## Cn1nnc2c(C(N)=O)ncn2c1=O [TMZ, Temozolomide, reference compound]
[1]
  Score: Mitotic figures: 3 (4×) and 1 (4×)
[2]
  Score: Necrosis: 3
[3]; day 20
  tumor reduction in relation to the negative control: 41.3±11.1%
[3]; day 22
  tumor reduction in relation to the negative control: 31.1±13.4%
[3]; individual animals, G3 APT20TTMG, G2 TMZ
  Volume (tumor): Volume 1593.8; also recorded: Volume 113.1; also recorded: Volume 937.9; also recorded: Volume 339.1; also recorded: Volume 1447.2; also recorded: Volume 830.6; also recorded: Volume 1277.9; also recorded: Volume 1479.7
[4]
  Score: Necrosis: 4
[5]
  Histopathological findings: Grade: Grade- 2; also recorded: Grade- 3
  Score: Apoptosis: 3 (7×) and 2
  Score: Connective tissue stroma: 3 (2×) and 2 (5×) and 1
  Score: Grade: 2 (5×) and 3 (3×)
  Score: Lipid content: 3 (4×) and 2 and 1 (3×)
  Score: N:C ratio: 2
  Score: Volume Tumor: 4 (>1500) and 1 (<500) (2×) and 2 (500-1000) (2×) and 3 (1000-1500) (3×)
